1 compound from patent US9283163B2, “Collagen stimulators and their use in the treatment of skin” (Avon Products, Inc., priority 2012, dated 2016) can be followed below.

The test concerns Normal Human dermal fibroblasts. The experiment in a line: Stimulation of collagen production: Procollagen Type-I C-Peptide EIA on conditioned media. It is filed as cell-based. As to conditions: 0.0005% compound, 48 hours, p<0.05. On the procedure:
Cell Treatment: Normal Human dermal fibroblasts were grown in DMEM (Mediatech; cat. #: 15-013-CV) containing 10% Fetal Bovine Serum (Perbio; cat. #: SH30070.03), Penicillin/Streptomycin (Mediatech, Cat #30-001-C1), L-Glutamine (Mediatech; cat. #: 25-005-CI) at 37° C. and 10% CO2. Cells were stripped of serum overnight, followed by treatment with the compound of Formula I(b) (0.0005%) or vehicle (DMSO), in the absence of serum for 48 hours.
Reading was measured at 450 nm using a spectrophotometer.
Human dermal fibroblasts treated with 0.0005% the compound of Formula I(b) for 48 hours were analyzed by ELISA for expression levels of pro-collagen. […] All values are statistically significant at p<0.05.

As for `COc1ccc(Cc2nc(=O)c(CCC(=O)N3CCC(C)CC3)n[nH]2)cc1OC` [Formula I(b)], the “pro-collagen, relative to control, vehicle treated cells” value (ELISA, result in words) is recorded as “significant increase”. The Procollagen (serum-free, procollagen in conditioned media by ELISA, vehicle (DMSO) control = 100%) stood at 146%.
